Data reported in patent publication US9688628B1, “Drug repositioning: urease inhibitory activity of (2S)-1-[(2S)-2-methyl-3-sulfanylpropanoyl]pyrrolidine-2-carboxylic acid (captopril)” (priority 2016, dated 2017).

Legend:
Jack bean urease [1] = target: T1, Jack bean urease (Canavalia ensiformis, UniProt P07374); experiment: mechanistic (kinetic) studies on urease; format: biochemical
T1 construct: purchased Sigma-Aldrich (USA) Type IX
Protocol: For mechanistic studies, urease enzyme solution (1 U/200 μL) was incubated with different concentrations of inhibitors for 15 min at 30° C. The reaction was initiated by adding different concentrations of substrate (0.5-4.0 mM), then phenol and alkali reagent were added and change in absorbance was measured for 50 minutes at 630 nm on microtitre plate reader (Spectra Max M5, Molecular Devices, CA, USA).
The IC50 values were calculated by the EZ-Fit enzyme kinetics program (Perellela Scientific, Inc., Amherst, USA). Lineweaver-Burk plot, secondary plot, and Dixon plot were plotted by using Grafit 7 (Erithacus Software Limited, UK). Grafit 7 program was used to evaluate the correlation coefficients, slopes, and intercepts by linear regression analysis.

Jack bean urease [2] = target: T1, Jack bean urease; experiment: biochemical

T1 sequence (P07374 whole entry, looked up): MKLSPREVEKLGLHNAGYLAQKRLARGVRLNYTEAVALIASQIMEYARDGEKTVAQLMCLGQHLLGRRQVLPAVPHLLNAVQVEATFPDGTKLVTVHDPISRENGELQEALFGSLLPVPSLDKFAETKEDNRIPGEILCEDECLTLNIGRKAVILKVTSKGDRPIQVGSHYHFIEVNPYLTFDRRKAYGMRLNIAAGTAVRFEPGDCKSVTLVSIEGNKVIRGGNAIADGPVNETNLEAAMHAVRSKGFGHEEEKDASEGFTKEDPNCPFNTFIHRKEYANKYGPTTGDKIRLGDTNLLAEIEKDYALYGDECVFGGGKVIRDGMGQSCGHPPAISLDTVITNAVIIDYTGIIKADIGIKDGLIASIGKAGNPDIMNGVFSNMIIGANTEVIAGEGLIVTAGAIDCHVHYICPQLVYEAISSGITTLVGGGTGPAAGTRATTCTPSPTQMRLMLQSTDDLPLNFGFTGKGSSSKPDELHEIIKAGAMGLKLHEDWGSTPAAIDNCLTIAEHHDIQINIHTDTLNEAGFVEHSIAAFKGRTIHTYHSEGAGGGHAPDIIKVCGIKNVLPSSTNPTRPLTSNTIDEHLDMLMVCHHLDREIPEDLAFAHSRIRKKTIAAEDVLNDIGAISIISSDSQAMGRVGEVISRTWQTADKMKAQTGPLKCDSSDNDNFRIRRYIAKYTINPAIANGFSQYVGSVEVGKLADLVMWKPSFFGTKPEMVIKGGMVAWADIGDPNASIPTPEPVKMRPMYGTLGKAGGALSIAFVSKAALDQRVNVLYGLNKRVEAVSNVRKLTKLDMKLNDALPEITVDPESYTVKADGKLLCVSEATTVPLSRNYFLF

`C[C@H](CS)C(=O)N1CCC[C@H]1C(=O)O` [Captopril, (2S)-1-[(2S)-2-methyl-3-sulfanylpropanoyl]pyrrolidine-2-carboxylic acid] was tested, and the “type of inhibition (Lineweaver-Burk plot)” value (Jack bean urease [1]; FIG. 2A, apparent Km and Vmax changed) was “mixed-type inhibitor”, the “type of inhibition (Dixon plot)” value (Jack bean urease [1]; FIG. 2C, 1/Vmax vs [I]) was “non-competitive” and the IC50 (Jack bean urease [2]) was 27 ± 1.97 µM.
